This note sets out measurements from ChEMBL document CHEMBL3886836, “Amides as pim inhibitors” (2016).

SMILES strings stand for the structures.

As usually defined, the IC50 is the concentration needed to halve the response being measured.

In test [1] the target is T1, Serine/threonine-protein kinase pim-2 (Homo sapiens, UniProt Q9P1W9). Kind of test: Homogeneous Time Resolved Fluorescence Assay (HTRF): The assay for the determination of Pim activity is based on the formation of phosphorylated biotinylated-BAD peptide at the Serine 112 residue (S112) and employs HTRF® (homogeneous time resolved fluorescence) technology to detect the product in a 384-well plate format. The phosphorylation of biotinylated-BAD (S112) peptide by full length recombinant Pim-1, Pim-2, or Pim-3 protein was detected with streptavidin:Allophycocyanin (APC) conjugate and a europium (Eu) labeled antibody directed against phosphorylated-BAD (S112). Excitation of Eu by a high energy laser light (337 nm) leads to a transfer of energy to the APC molecule, and results in an emission at 665 nm. The fluorescence is directly proportional to the amount of phosphorylated BAD peptide present in the reaction. […] A reference compound was included on each assay plate [Costar 3658] in order to validate that plate; on one plate of every assay run, two additional reference compounds were included. The Reaction Buffer consisted of 45 mM Hepes, pH 7.0, 15 mM NaCl, and 1 mM MgCl. The quench/detection buffer consisted of 50 mM Tris, 100 mM NaCl, 0.05% BSA, 0.1% Tween and 3 mM EDTA. Biotinylated BAD peptide (Biopeptide), 10 mM ATP (Sigma), Labeled p-BAD (S112) mAb (Cell Signalling and Perkin Elmer) [with 0.05% BSA and 2 mM DTT added] streptavidin:Allophycocyanin [Perkin Elmer]. Final concentrations either Pim-1 enzyme [5 pM], or Pim-2 enzyme [0.5 pM], DMSO [1%], BLC BAD (S112) [0.5 μM], ATP [1.5 μM], streptavidin:Allophycocyanin [0.002 mg/mL] and biotinylated-BAD (S112) mAb [100 pM]. Initial incubations were carried out at RT (22° C.) for 30 min for both Pim-1 and for Pim-2. Pim enzyme is added to compound in buffer, and plates are incubated of 30 min. Biotinylated BAD and ATP are added and plates are incubated for 1 h. A mixture of labeled p-BAD (S112) mAb and quench/detection buffer are added and incubated for 2 h. Fluorescence was measured by an HTRF® Envision microplate reader. In general terms: Time-resolved FRET reads energy transfer from a long-lived donor to a nearby acceptor.

For test [2], the target named is T2, Serine/threonine-protein kinase pim-1 (Homo sapiens, UniProt P11309). Kind of test: The phosphorylation of biotinylated-BAD (S112) peptide by full length recombinant Pim-1, Pim-2, or Pim-3 protein was detected with streptavidin:Allophycocyanin (APC) conjugate and a europium (Eu) labeled antibody directed against phosphorylated-BAD (S112). […] The fluorescence is directly proportional to the amount of phosphorylated BAD peptide present in the reaction. […] The Reaction Buffer consisted of 45 mM Hepes, pH 7.0, 15 mM NaCl, and 1 mM MgCl. The quench/detection buffer consisted of 50 mM Tris, 100 mM NaCl, 0.05% BSA, 0.1% Tween and 3 mM EDTA. Biotinylated BAD peptide (Biopeptide), 10 mM ATP (Sigma), Labeled p-BAD (S112) mAb (Cell Signalling and Perkin Elmer) [with 0.05% BSA and 2 mM DTT added] streptavidin:Allophycocyanin [Perkin Elmer]. […] Initial incubations were carried out at RT (22° C.) for 30 min for both Pim-1 and for Pim-2. Pim enzyme is added to compound in buffer, and plates are incubated of 30 min. Biotinylated BAD and ATP are added and plates are incubated for 1 h. A mixture of labeled p-BAD (S112) mAb and quench/detection buffer are added and incubated for 2 h. Fluorescence was measured by an HTRF® Envision microplate reader.

Test [3] has as its target T2, Serine/threonine-protein kinase pim-1. Kind of test: (§1) Homogeneous Time Resolved Fluorescence Assay (HTRF): The assay for the determination of Pim activity is based on the formation of phosphorylated biotinylated-BAD peptide at the Serine 112 residue (S112) and employs HTRF® (homogeneous time resolved fluorescence) technology to detect the product in a 96-well plate format. The phosphorylation of biotinylated-BAD (S112) peptide by full length recombinant Pim-1, Pim-2, or Pim-3 protein was detected with streptavidin:Allophycocyanin (APC) conjugate and a europium (Eu) labeled antibody directed against phosphorylated-BAD (S112). Excitation of Eu by a high energy laser light (337 nm) leads to a transfer of energy to the APC molecule, and results in an emission at 665 nm. The fluorescence is directly proportional to the amount of phosphorylated BAD peptide present in the reaction. […] A reference compound was included on each assay plate in order to validate that plate; on one plate of every assay run, two additional reference compounds were included. The final buffer conditions were as follows: 60 mM Hepes, pH 7.0, 0.05% BSA, 2 mM DTT. Incubations were carried out at RT (22° C.) for 2 h for Pim-1, 1 hour and 30 min for Pim-3, and 45 min for Pim-2. The reaction was stopped by the addition of 3 mM EDTA, and fluorescence was measured by an HTRF® Rubystar microplate reader.

Test [4] deals with T1, Serine/threonine-protein kinase pim-2. The test is described as §1.

As for `Cc1nc2cccc(-c3cc4c([nH]3)CCNC4=O)c2nc1N[C@H]1C[C@@H](N(C)C)C1`, the figures for the IC50 in test [1] and in test [2] were 4 nM and 2 nM, respectively.

As for `CC(C)(C)Nc1ccc2cccc(-c3cc4c([nH]3)CCNC4=O)c2n1`, the half-inhibitory concentration (IC50) was 1.11 nM in test [1] and 0.434 nM in test [2].

For `Cn1c(NC(C)(C)C)nc2c(-c3cc4c([nH]3)CNC4=O)cccc2c1=O`, the half-inhibitory concentration (IC50) in test [1] was found to be 0.193 nM.

For `Cc1nc2cccc(-c3cc4c([nH]3)CCNC4=O)c2nc1-c1c(F)cccc1Cl`, the IC50 in test [2] came out at 6.04 nM.

Turning to `Cc1nc2cccc(-c3cc4c([nH]3)CCNC4=O)c2nc1N[C@H]1C[C@@H](N2CCOCC2)C1`, in test [2], the IC50 is 6 nM.

As for `Cc1nc2cccc(-c3cc4c([nH]3)CCNC4=O)c2nc1-c1cccnc1Cl`, the 50% inhibitory concentration (IC50) in test [1] came out at 187 nM; in test [2] it was 98.5 nM.

For the compound `Cc1nc2cccc(-c3cc4c([nH]3)CCNC4=O)c2nc1NC(C)(C)CCS(C)(=O)=O`, the half-inhibitory concentration (IC50) came to 98.6 nM in test [1] and 232 nM in test [2].

In the case of `Cc1nc2cccc(-c3cc4c([nH]3)CCNC4=O)c2nc1N[C@H]1C[C@@H](NCC(F)F)C1`, the 50% inhibitory concentration (IC50) in test [1] and in test [2] was 2 nM in each case.

Turning to `Cc1nc2cccc(-c3cc4c([nH]3)CCN/C4=N/O)c2nc1NC(C)(C)C`, the IC50 in test [1] stood at 12 nM; in test [2] it was 9 nM.

For the compound `Nc1nc2cccc(-c3cc4c([nH]3)CCNC4=O)c2nc1Oc1ccccc1`, the results for the concentration for half-maximal inhibition (IC50) in test [1] and in test [2] were 1.8 nM and 2 nM, respectively.

Turning to `Cc1nc2cccc(-c3cc4c([nH]3)CCNC4=O)c2nc1-c1ccc(N)cc1Cl`, the IC50 in test [1] came to 33.4 nM; in test [2], 10.3 nM.

`CC1(C)CCCN1c1cnc2cccc(-c3cc4c([nH]3)CCNC4=O)c2n1`: the IC50 in test [1] worked out at 0.8 nM; in test [2] it was 0.3 nM.

Consider `Cc1nc2cccc(-c3cc4c([nH]3)CCNC4=O)c2nc1-c1cnccc1Cl`, for which the IC50 in test [2] was determined as 50.7 nM.

In the case of `O=C1NCCc2[nH]c(-c3cccc4ccc(N[C@H]5CC[C@H](O)CC5)nc34)cc21`, the figures for the IC50 in test [3] and in test [4] were 7 nM and 57.2 nM, respectively.

Turning to `Cc1nc2cccc(-c3cc4c([nH]3)CCNC4=O)c2nc1NC(C)(C)C(N)=O`, the half-maximal inhibitory concentration (IC50) was determined as 22.7 nM in test [1] and 6.2 nM in test [2].

Consider `CC1(C)CCN1c1cnc2cccc(-c3cc4c([nH]3)CCNC4=O)c2n1`, for which the IC50 was found to be 0.8 nM in test [1] and 0.4 nM in test [2].

As to `Cc1nc2cccc(-c3cc4c(n3C)C(CO)NC4=O)c2nc1NC(C)(C)C` (racemic), the results for the 50% inhibitory concentration (IC50) in test [1] and in test [2] were 7.8 nM and 10.3 nM, respectively.

Take `Cc1nc2cccc(-c3cc4c([nH]3)C(CO)NC4=O)c2nc1NC(C)(C)C` (racemic): the IC50 in test [1] was 2.16 nM; in test [2] it was 2.32 nM.

On to `Cc1nc2cccc(-c3cc4c([nH]3)CCNC4=O)c2nc1NC(C)C(C)C` (racemic), for which the figures for the IC50 in test [1] and in test [2] were 1.8 nM and 1.2 nM, respectively.
